Test results reported in patent US20200239530A1, “COMPOUNDS AND METHODS OF MODULATING PROTEIN DEGRADATION” (Vividion Therapeutics, Inc., priority 2017, published 2020).
Where two headings read alike, the source gives them in different places.

Experiments:
[1] = target: T1, Polycomb group RING finger protein 6 (PCGF6) (Homo sapiens, UniProt Q9BYE7); assay: Cysteine liganding, probe competition; assay type: binding
T1 construct: Cells were resuspended in cold PBS on ice and sonicated with a probe sonicator to achieve lysis; endogenous in cells
T1 sequence (Q9BYE7 1-350): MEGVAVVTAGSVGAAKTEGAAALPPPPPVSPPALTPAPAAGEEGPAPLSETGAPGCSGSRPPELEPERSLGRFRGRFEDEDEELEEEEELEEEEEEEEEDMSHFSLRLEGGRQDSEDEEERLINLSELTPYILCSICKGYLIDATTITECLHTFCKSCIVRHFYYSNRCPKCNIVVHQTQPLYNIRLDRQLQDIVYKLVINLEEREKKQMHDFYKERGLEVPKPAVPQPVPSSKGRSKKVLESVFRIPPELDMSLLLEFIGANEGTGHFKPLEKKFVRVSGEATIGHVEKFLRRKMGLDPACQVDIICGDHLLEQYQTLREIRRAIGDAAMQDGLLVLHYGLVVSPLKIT
Description: (§1) Cells were resuspended in cold PBS on ice and sonicated with a probe sonicator to achieve lysis. 200 μL of lysate containing 5 mg/ml proteome was treated with 2 μL of 100× compound stock in a 2-mL deep-well plate. The treated lysate was subsequently incubate at 25° C. for 1 hr with shaking at 600 rpm. The treated lysate was further incubated with 2 μL of 10 mM desthiobiotin iodoacetamide probe at 25° C. for 1 hr with shaking at 600 rpm. Next, the lysate was further treat with 20 μL of solution of PBS containing 11 mM MgSO4 and 2.5% Turbonuclease stock and incubated at 25° C. for 20 minutes with shaking at 600 rpm. 1.7 mL ice-cold acetone was added to each well and incubated at −20° C. for 2 hr, followed by max speed (4200 rpm) spin for 45 min. Acetone was then decanted and the plates were blotted to remove acetone. The plates were then dried in open air for 20 minutes. After drying, the plates were then covered with foil seal and stored at −80° C. overnight.
(§2) The next day, samples were re-suspended in 90 μL of solution of 9M urea, 50 mM ammonium bicarbonate and 10 mM DTT by incubating at 65C for 20 min with shaking at 1500 rpm. Next, samples were cooled to 37° C. and then 10 μL of 500 mM iodoacetamide solution (92.48 mg/ml) was added. The samples were then incubated at 37° C. for 30 min with shaking at 600 rpm.
(§3) ZEBA desalting plates were equilibrated 4 times using 250 μL of 2M urea, 50 mM ammonium bicarbonate solution followed by centrifugation at 1500 rpm for 2 minutes. After equilibration was complete, samples were applied to ZEBA desalting plate and spin at 1500 rpm for 2 min on top of 1 mL 96-well deep-well collection plate to buffer exchange samples. 4 μL of solution containing 25 mM CaCl2 and 0.25 mg/mL trypsin was added to the plate and the plate was then incubated at 37° C. for 2 hrs with shaking at 600 rpm. 300 μL of solution containing 5% high-capacity streptavidin agarose slurry in 25 mM Tris-HCl pH 7.5, 150 mM NaCl, and 0.1% NP-40 then added. The plate was incubated at 25° C. for 2 hrs with shaking at 600 rpm. Samples were transferred to 25 μm filter plate and spin at 1000 rpm for 2 min. Samples were then washed 3 times with 0.75 mL of wash buffer (25 mM Tris-HCl pH 7.5, 150 mM NaCl, and 0.1% NP-40) followed by washing 3 times with 0.75 mL PBS, and then 4 times with 0.75 mL water. After the washing step, samples were eluted into polypropylene 96-well plate by addition of 250 µL of 50% MeCN/water, 0.1% formic acid and allowed to gravity drip for 10 min, followed by centrifugation at 1000 rpm for 2 min. Speedvac was used to dry the plates at about 45° C. for […]. Then the plates were covered with foil seal and stored at −20° C.
(§4) Samples were resuspended by addition of 20 μl of 12.5% ACN, 0.1% formic acid solution, covered with foil seal, and incubated at 42° C. for 10 minutes with shaking at 600 rpm. Then add 30 μL of 0.1% formic acid solution was added and the plate was covered and incubated at 42° C. for 10 minutes with shaking at 600 rpm. Seal plate was then sealed with a 96-well silicon mat for analysis.

[2] = target: T2, AREL1 Apoptosis-resistant E3 ubiquitin protein ligase 1 (Homo sapiens, UniProt O15033); assay: Cysteine liganding, probe competition; assay type: binding
T2 construct: endogenous in cells
T2 sequence (O15033 1-823): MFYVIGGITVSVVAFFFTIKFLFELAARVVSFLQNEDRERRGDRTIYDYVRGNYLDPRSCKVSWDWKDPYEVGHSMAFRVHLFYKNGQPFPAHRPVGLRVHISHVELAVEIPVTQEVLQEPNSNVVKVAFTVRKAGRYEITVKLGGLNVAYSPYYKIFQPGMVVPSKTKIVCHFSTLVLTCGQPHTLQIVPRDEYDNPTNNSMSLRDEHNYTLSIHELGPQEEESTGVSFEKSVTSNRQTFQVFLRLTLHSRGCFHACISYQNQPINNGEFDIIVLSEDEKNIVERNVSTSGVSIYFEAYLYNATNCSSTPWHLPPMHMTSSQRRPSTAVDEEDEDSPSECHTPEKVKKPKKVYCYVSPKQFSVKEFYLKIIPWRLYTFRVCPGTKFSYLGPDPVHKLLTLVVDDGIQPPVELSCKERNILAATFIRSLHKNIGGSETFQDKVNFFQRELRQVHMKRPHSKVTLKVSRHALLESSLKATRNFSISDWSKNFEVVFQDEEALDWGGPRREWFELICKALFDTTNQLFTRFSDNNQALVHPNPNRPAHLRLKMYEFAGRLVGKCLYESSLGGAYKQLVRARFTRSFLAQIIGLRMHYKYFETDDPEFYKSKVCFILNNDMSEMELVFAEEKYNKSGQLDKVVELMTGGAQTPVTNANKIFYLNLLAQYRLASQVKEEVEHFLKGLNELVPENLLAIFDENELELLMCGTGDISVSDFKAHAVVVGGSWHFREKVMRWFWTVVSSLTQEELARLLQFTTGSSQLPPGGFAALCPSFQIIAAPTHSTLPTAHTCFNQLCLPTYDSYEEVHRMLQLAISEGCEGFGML
Description: as §1, §2, §3, §4

## COc1ccc2c(c1)CCCN2C(=O)CCl [KB02]
[1]; 500 uM, read-out: KB02_500 uM_percent_inhibition
  inhibition at 500 µM: 37%
[2]; 100 uM, UniProt O15033, read-out: KB02_100 uM_percent_inhibition
  inhibition at 100 µM: 77%
[2]; 500 uM, UniProt O15033, read-out: KB02_500 uM_percent_inhibition
  inhibition at 500 µM: 96%
[2]; AREL1 Res# 382, uniprot O15033
  Liganded: YES

## C=CC(=O)N(c1ccccc1)c1ccc(Br)cc1 [KB05]
[1]; 500 uM
  KB05_500 uM_percent_inhibition: 48%
[1]; 500 uM, read-out: KB05_500 uM_percent_inhibition
  inhibition at 500 µM: 33%
[2]; 100 uM, UniProt O15033, read-out: KB05_100 uM_percent_inhibition
  inhibition at 100 µM: 69%
[2]; 500 uM, UniProt O15033, read-out: KB05_500 uM_percent_inhibition
  inhibition at 500 µM: 92%

## O=C(CCl)Nc1cc(C(F)(F)F)cc(C(F)(F)F)c1 [KBO3]
[1]; 100 uM
  KB03_100 uM_percent_inhibition: 41%
[2]; 100 uM, UniProt O15033
  KB03_100 uM_percent_inhibition: 57%
[2]; 500 uM, UniProt O15033
  KB03_500 uM_percent_inhibition: 87%
[2]; uniprot O15033
  100 Max: 56.8
  100 ave: 49.1
  500 ave: 55.1
[2]; uniprot O15033, unit assumed
  500 Max: 55.1%
